The target in assay [1] is T1, crude human lung extract (Homo sapiens, UniProt O76074).
T1 construct: from tissue; host or cells: human lung (explanted lung of transplant patients), supernatant fractionated on DEAE-Sephacel
The assay can be described thus: [^3H]sildenafil binding in DEAE-Sephacel fractions of crude human lung extract (FIG. 5). As to conditions: 16 nM [^3H]sildenafil.
Experimental: 5 g human lung was thawed, cut into small pieces and homogenized in 80 ml 2.5 mM potassium phosphate (pH 6.8) containing 0.25 mM EDTA, 0.025 mM IBMX, 4 mM β-mercaptoethanol, and 1 mM CaCl2 with a Cuisinart apparatus (high speed) using 3 bursts of 15 sec each at 4° C. After centrifugation in a Beckman JA-20 rotor for 30 min at 10,000×g, 72 ml supernatant was applied to a DEAE-Sephacel column (0.9×10 cm) equilibrated in KPM and the column was washed with 20 ml of KPM containing 20 mM NaCl and 1 mM CaCl2. The column was developed with a linear (20–280 mM) NaCl gradient in KPM containing 1 mM CaCl2. […] PKG activity was determined in the presence of 2 μM cGMP as described in Materials and Methods.

The target of assay [2] is T2, isolated regulatory domain of PDE5 (Homo sapiens, UniProt O76074).
T2 construct: made in house
Type of assay: binding. Here is the method: Reactions were incubated on an ice water bath for 20 min. […] Tubes were each rinsed with 3 ml of the same buffer and filtered. The filter membranes were removed and placed into slots of a scintillation vial box for subsequent drying. The vial box was placed into a glassware dryer for 10 min, and dried papers were transferred to 6 ml scintillation vials. Five ml non-aqueous scintillant was added, and papers were counted in a scintillation counter.

Assay [3] has as its target GAF domains of PDE5 (Homo sapiens, UniProt O76074). The following applies: cited from earlier work.
Assay [4] concerns second peak of cGMP PDE activity (human lung extract). As to conditions: 40 pmol/ml sildenafil; 0.4 μM [^3H]cGMP substrate.
Experimental: PKG activity was determined in the presence of 2 μM cGMP as described in Materials and Methods.
PDE activity was determined by a modified assay (Martins et al., 1982) as described earlier (Gopal et al., 2001) using 0.4 μM [^3H]cGMP as substrate. PKG activity was determined in the presence of 2 μM cGMP as described (Gopal et al., 2001).
In assay [5] the target is PDE5 (Homo sapiens, UniProt O76074). As to conditions: read-out: Km for the catalytic site; cited from earlier work.

Consider three compounds from US7217527B2, “Assay for phosphodiesterase function” (Vanderbilt University, priority 2003, dated 2007).

`CCCc1nn(C)c2c(=O)[nH]c(-c3cc(S(=O)(=O)N4CCN(C)CC4)ccc3OCC)nc12` [[^3H]sildenafil]: the “[^3H]sildenafil-binding activity other than the PDE5 peak” value in assay [1] is recorded as “no other significant peak”. For the same compound, the “binding to isolated regulatory domain of PDE5” value in assay [2] is “did not detectably bind”.
Consider `CCCc1nn(C)c2c(=O)[nH]c(-c3cc(S(=O)(=O)N4CCN(C)CC4)ccc3OCC)nc12` [sildenafil], for which the “competition with [^3H]cGMP for binding to the GAF domains of PDE5” value in assay [3] (even at high concentrations (Turko et al., 1999)) is recorded as “does not compete”. In addition, in assay [4], the “inhibition of second peak of cGMP PDE activity” value is “not inhibited”.
For orientation: Kd means the constant that tells how readily two partners part at equilibrium. One may read the Km as the substrate concentration at which the rate is half of its maximum. For `Nc1nc2c(ncn2[C@@H]2O[C@@H]3COP(=O)(O)O[C@H]3[C@H]2O)c(=O)[nH]1` [cGMP], the Kd in assay [3] is 200 nM. The Km in assay [5] was 5 µM.
